Calls of active or inactive are those of the source. The rule behind the calls is not given here.
Assays:
[1] = biological target: Neuronal acetylcholine receptor subunit alpha-7 (Homo sapiens) (UniProt P36544); experiment: (§1) Positive allosteric modulation of human alpha7 nAChR expressed in Xenopus laevis oocytes assessed as increase in acetyl choline-evoked currents at 10 to 100 uM treated for 21 secs followed by compound washout measured after 181 secs by electrophysiology method; format: cell-based
Chain of Neuronal acetylcholine receptor subunit alpha-7 (Homo sapiens) (P36544 whole entry): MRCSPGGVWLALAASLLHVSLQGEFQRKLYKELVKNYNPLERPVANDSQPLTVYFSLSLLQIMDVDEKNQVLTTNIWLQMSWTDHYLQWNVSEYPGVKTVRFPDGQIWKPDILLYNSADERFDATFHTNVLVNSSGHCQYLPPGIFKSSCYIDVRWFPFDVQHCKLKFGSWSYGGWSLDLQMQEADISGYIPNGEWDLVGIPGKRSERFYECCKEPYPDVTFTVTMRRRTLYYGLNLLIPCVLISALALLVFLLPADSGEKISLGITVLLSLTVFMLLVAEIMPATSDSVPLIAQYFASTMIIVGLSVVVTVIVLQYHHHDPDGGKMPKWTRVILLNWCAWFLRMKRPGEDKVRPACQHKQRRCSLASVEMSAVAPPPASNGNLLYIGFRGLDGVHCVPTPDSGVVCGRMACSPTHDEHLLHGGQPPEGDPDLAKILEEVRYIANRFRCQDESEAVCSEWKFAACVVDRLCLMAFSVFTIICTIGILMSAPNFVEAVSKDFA

[2] = biological target: Neuronal acetylcholine receptor subunit alpha-7 (Homo sapiens) (UniProt P36544); experiment: as §1, with “at” for “at 10 to”, “pretreated followed by co-treatment with acetyl choline” for “treated”, “and subsequent” for “followed by”; format: cell-based
[3] = biological target: Neuronal acetylcholine receptor subunit alpha-7 (Homo sapiens) (UniProt P36544); experiment: as §1, with “10” for “10 to 100”, “pretreated followed by co-treatment with acetyl choline” for “treated”, “and subsequent” for “followed by”; format: cell-based
[4] = test system: Mus musculus; experiment: Antinociceptive activity in formalin-induced nociception pain ICR mouse model assessed as reduction in time spent licking in hind paw at 10 mg/kg, ip administered 15 mins prior to formalin challenge measured up to 5 mins; format: functional, organism-based
[5] = test system: Mus musculus; experiment: Antinociceptive activity in ip dosed formalin-induced nociception pain ICR mouse model assessed as reduction in time spent licking in hind paw administered 15 mins prior to formalin challenge measured after 20 to 45 mins; format: functional, organism-based
[6] = test system: Mus musculus; experiment: Antinociceptive activity in formalin-induced nociception pain ICR mouse model assessed as reduction in paw edema at 3 to 10 mg/kg, ip administered 15 mins prior to formalin challenge measured after 1 hr by calliper method; format: functional, organism-based
[7] = test system: Mus musculus; experiment: Antinociceptive activity in formalin-induced nociception pain ICR mouse model assessed as reduction in time spent licking in hind paw at 10 mg/kg, ip administered 15 mins prior to formalin challenge measured up to 5 mins in presence of alpha7 nAChR antagonist MLA; format: functional, organism-based
[8] = test system: Mus musculus; experiment: Antinociceptive activity in formalin-induced nociception pain ICR mouse model assessed as reduction in time spent licking in hind paw at 10 mg/kg, ip administered 15 mins prior to formalin challenge measured after 20 to 45 mins in presence of alpha7 nAChR antagonist MLA; format: functional, organism-based

Structure (SMILES) | Activity [1] | Activity [2] | Activity [3] | Activity [4] | Activity [5] | Activity [6] | Activity [7] | Activity [8]
C[C@H](NC(=O)CCc1ccc(F)c(F)c1)c1cncc(N2CCN(c3ccccn3)CC2)n1 | Active | Active | Active | Active | Dose-dependent effect | Active | inactive | inactive
C[C@@H](NC(=O)CCc1ccc(F)c(F)c1)c1cncc(N2CCN(c3ccccn3)CC2)n1 | inactive | inactive |  |  |  |  |  | 
